# Reference: patent US5352667A, “Non-peptidic surrogates of the Arg-Gly-Asp sequence and pharmaceutical compositions comprising them” (priority 1991, dated 1994)
# “Also recorded” adds a separate entry of the source.
# What was measured:
# [1] = tested on: CD4^+ T cell adhesion to 120 kD fragment of FN; assay: Inhibition of activated CD4+ T cell adhesion to 120 kD fragment of FN; format: cell-based, human; conditions: for % inhibition of adhesion of activated CD4^+ T cell to 120 kD fragment of FN / % Adhesion of activated CD4^+ T cell to 120 kD fragment of FN: 0.2 mM peptides and surrogates, mAb anti-CD29 1/200, anti-VLA5 1/400 diluted; for % inhibition of adhesion of activated CD4^+ T cell to 120 kD fragment of FN: * P<0.05; for % Adhesion of activated CD4^+ T cell to 120 kD fragment of FN: PMA activated, none 43 ± 4; for T cell adhesion to FN, in words: 0.2 mM, 120 kD fragment of FN
# Description: To examine the adhesive properties of the T cells, 1 μg/50 μl/well of either fibronectin (FN) (Sigma), the 120 kD cell attachment fragment of FN (Telios Pharm. Inc. San Diego, CA), or laminin (LN) (Sigma), were added to 96-flat bottom microtiter-wells for 12 h. Unbound proteins were then washed away and remaining binding sites were blocked with 0.1% bovine serum albumin (BSA) added to the wells for 2 h and washed. CD4+T cells were purified from peripheral blood mononuclear leukocytes obtained from healthy human donors. The mononuclear cells were isolated using a Ficoll gradient, washed and incubated in RPMI supplemented with 10% fetal calf serum (FCS) and antibiotics in petri dishes at 37° C. humidified CO2 incubator. After 2 h, the non-adherent cells were isolated and applied on nylon-wool columns (1.5 h). CD4^+ T cells were then negatively selected by exposure of the cells to a cocktail of anti-CD8, CD19, and CD14 monoclonal antibodies (mAb) conjugated to magnetic-beads (Advanced Magnetics, MA). Unbound cells were recovered and their phenotype was examined. Purity of the CD4^+ T cells was always greater than 92% as determined by FACScan.
# The purified CD4^+ T cells were radioactively labeled with ^51 [Cr](New England Nuclear) in RPMI +20% FCS for 2 h and washed. The cells were counted and seeded (0.2×10^5 cells) on the precoated microtiter wells in the presence or the absence of the various inhibitors. Coating was made either with FN, the 120 kD cell-attachment fragment of FN or with control adhesive protein laminin (LN). The inhibitors were various surrogates according to the invention, other test molecules or mAb. After 30 min incubation (in […] CO2 -- humidified incubator) the T cells were activated by 10 ng/ml phorbol myristate acetate (PMA) and the percent of T cells attached to the protein substrates was measured. Unbound cells were washed away after 20-30 min, the bound cells were lysed and their radioactivity was measured using radioactive counter. The amount of the radioactivity of the cell lysates represent the matrix-adherent cells and percent binding was calculated in comparison to the total radioactivity added to the wells. Activated T cell adhesion to control wells or to wells coated with BSA was always 2-5%; the level of adhesion of the non-activated T cells was always below 5%. Where indicated, 1/200 diluted mAb anti-CD29 (anti-β1 mAb Serotec, GB), or 1/400 diluted anti-VLA5 (the β1α5 FN-integrin receptor) mAb (Telios Pharm. Inc. San Diego), or 0.2 mM of RGD, GRGDSPK or GRGESP peptides (Sigma) were used. The tested non-peptidic surrogates, 0.2 mM in PBS, were used to pretreat the T cells for 15 min before seeding the cells *, P<0.05. The results shown in Tables 1A, 1B and 1C represent data obtained from several experiments that produced essentially similar results.
# The four RGD surrogates, AC-4.
# [2] = target: T1, platelet GPIIb-IIIa receptor (Homo sapiens, UniProt P05106+P08514); assay: Inhibition of ADP-induced platelet aggregation (platelet rich plasma); format: cell-based; conditions: for Inhibition of platelet aggregation, dose dependence, in words: FIG. 3; for Inhibition of platelet aggregation at fixed concentration, in words: FIG. 4, fixed sub-saturating 0.5 mM / 10μg/ml, 4 experiments
# T1 construct: Platelet concentrates were prepared from human whole blood; endogenous in cells; host or cells: human platelets in platelet rich plasma
# Description: To investigate the inhibitory role of the RGD analogues on adhesion, the platelet GPIIb-IIIa receptor which mediates platelet aggregation upon activation was used as a model.
# Platelet concentrates were prepared from human whole blood in 10% adenine-citrate-dextrose in Fenwall bags (Baxter Travenol, Israel) followed by standard AABB protocol. Platelet rich plasma was prepared by centrifugation (2500 rpm for 5 min). Samples of platelets were counted in a Minos AST Cell Counter (Levoiselle, France). Cell aggregation was induced by […] and monitored at […] in a 4-channel Aggregometer (Bio-Data, Hatboro, Pa.). To evaluate the effect of the various RGD peptides and the peptide analogues, the platelet rich plasma was pre-incubated with the various inhibitors for 10 min at 37° C. with 10μsolutions followed by the induction of aggregation.
# To examine the specificity of the inhibitory effect of the RGD-analogues on platelet aggregation, the cells were treated with various peptidic (RGD and GRGDSP) and non-peptidic (SF-6,6, SF-6,5 and AC-15) RGD analogues used at a fixed sub-saturating concentration of 0.5 mM.
# An in vitro assay as described in Example 17 was carried out with the compound NS-11 to examine its ability to interfere with platelet aggregation, and compared it to the SF-6,5 surrogate.
# Platelet rich plasma (PRP) was prepared from acid/citrate/dextrose anti-coagulated fresh human blood by differential centrifugation. Platelet aggregation was induced by […] and monitored at 695 nm by a 4-channel Aggregometer (Bio-Data, PA). To evaluate the effect of the RGDS peptide and the NS-8, NS-11 and NS-15 analogs, the PRP was preincubated with the inhibitors for 10 minutes at 37° C., prior to the induction of aggregation. […] In fact, 50% inhibition of platelet aggregation was achieved using a 30-fold lower concentration of NS-11 than that of RGDS.
# DTH response to OX = assay: Inhibition of DTH response to OX in mice (ear swelling); format: in vivo, BALB/c mice; set-up: % inhibition of DTH response: concentration or dose not given beside the values; conditions: I.V.; for Δ Ear swelling: ± SD, positive control 21 ± 2
# Description: To examine the regulatory role of SF-6,5 on T cell immunity and lymphocyte migration in vivo, a delayed-type hypersensitivity (DTH) reaction experiment was performed in which groups of BALB/c mice (6 mice per group) were sensitized on the shaved abdomen with the skin allergen 4-ethoxymethylene-2-phenyl oxazolone (OX) (10 μl of 3% OX in acetone/olive oil) and challenged again 5 days later by applying OX to their ears. The increment in ear swelling was recorded 24 hours later as a measure of DTH. The individual measuring of ear swelling was blinded to the identity of the groups of mice. GRGDS, RGD surrogate compound SF-6,5 and RGE surrogate compound SF-6,6 were administrated I.V. in 200μl PBS into the tail vein on the indicated days. Control groups of mice were treated identically with PBS.
# These findings indicate that modulation of cell-mediated immune reactions in vivo may be achieved by relatively low doses of non-peptidic RGD analogue, most probably by means of interfering with lymphocyte migration.
# [3] = injected on days 1 to 6, * P<0.01
Compound,% inhibition of adhesion of activated CD4^+ T cell to 120 kD fragment of FN [1],% Adhesion of activated CD4^+ T cell to 120 kD fragment of FN [1],"T cell adhesion to FN, in words [1]","Inhibition of platelet aggregation, dose dependence, in words [2]","Inhibition of platelet aggregation at fixed concentration, in words [2]",% inhibition of DTH response (DTH response to OX; injected on days 1 to 6),Δ Ear swelling (DTH response to OX; [3]),"inhibition at 100 µM ([2]; 0.1 mM, ADP-induced, read-out: Percent inhibition of aggregation)","inhibition at 300 µM ([2]; 0.3 mM, ADP-induced, read-out: Percent inhibition of aggregation)","IC50 ([2]; FIG. 3, ADP-induced)","Inhibition of platelet aggregation, in words ([2]; Table 3)","Inhibition of DTH response, in words (DTH response to OX)",% inhibition of DTH response (DTH response to OX; injected on day 1),Δ Ear swelling (DTH response to OX; injected on day 1),"% inhibition of DTH response (DTH response to OX; injected on days 1, 3)","% inhibition of DTH response (DTH response to OX; injected on days 1, 3, 5)","Δ Ear swelling (DTH response to OX; injected on days 1, 3, 5, * P<0.01)","Δ Ear swelling (DTH response to OX; injected on days 1, 3)"
"N=C(N)NCCCCCC(=O)NCCCCCC(=O)O [SF-6,6]",0%,46 ± 2%,did not inhibit T cell adhesion to both FN and LN,"but not SF-6,6, was found to inhibit the aggregation of platelet rich plasma",very limited inhibitory effect on platelet aggregation,None,23 ± 4 × 10^-2 mm,–,–,–,–,–,–,–,–,–,–,–
"N=C(N)NCCCCCC(=O)NCCCCC(=O)O [SF-6,5, 6-aza-7-oxo-12-quanidino-dodecanoic acid]",49%,22 ± 2%,most prominent inhibition,found to inhibit the aggregation of platelet rich plasma in a dose-dependent fashion,even higher than that of the GRGDSPK peptide,95%,2 ± 1 × 10^-2 mm,25%,55%,300 µM,"mild, though significant effect on aggregation",inhibited the DTH response best when the mice were injected for 6 days; also recorded: better inhibitor of the DTH response than the GRGDS peptide,20%,16 ± 3 × 10^-2 mm,34%,62%,8 ± 2 × 10^-2 mm,13 ± 2 × 10^-2 mm
GRGDSPK [RGD peptide (Sigma)],54%,20 ± 2%,specifically inhibited,–,marked inhibitory effect on platelet aggregation,20%,17 ± 3 × 10^-2 mm,–,–,–,–,–,–,–,–,–,–,–
